Experimental data: BindingDB's records for patent US20250352549 (Avelos Therapeutics, 2025)

Target: T1, Serine/threonine-protein kinase greatwall (Human, UniProt Q96GX5)
T1 sequence (Q96GX5 whole entry): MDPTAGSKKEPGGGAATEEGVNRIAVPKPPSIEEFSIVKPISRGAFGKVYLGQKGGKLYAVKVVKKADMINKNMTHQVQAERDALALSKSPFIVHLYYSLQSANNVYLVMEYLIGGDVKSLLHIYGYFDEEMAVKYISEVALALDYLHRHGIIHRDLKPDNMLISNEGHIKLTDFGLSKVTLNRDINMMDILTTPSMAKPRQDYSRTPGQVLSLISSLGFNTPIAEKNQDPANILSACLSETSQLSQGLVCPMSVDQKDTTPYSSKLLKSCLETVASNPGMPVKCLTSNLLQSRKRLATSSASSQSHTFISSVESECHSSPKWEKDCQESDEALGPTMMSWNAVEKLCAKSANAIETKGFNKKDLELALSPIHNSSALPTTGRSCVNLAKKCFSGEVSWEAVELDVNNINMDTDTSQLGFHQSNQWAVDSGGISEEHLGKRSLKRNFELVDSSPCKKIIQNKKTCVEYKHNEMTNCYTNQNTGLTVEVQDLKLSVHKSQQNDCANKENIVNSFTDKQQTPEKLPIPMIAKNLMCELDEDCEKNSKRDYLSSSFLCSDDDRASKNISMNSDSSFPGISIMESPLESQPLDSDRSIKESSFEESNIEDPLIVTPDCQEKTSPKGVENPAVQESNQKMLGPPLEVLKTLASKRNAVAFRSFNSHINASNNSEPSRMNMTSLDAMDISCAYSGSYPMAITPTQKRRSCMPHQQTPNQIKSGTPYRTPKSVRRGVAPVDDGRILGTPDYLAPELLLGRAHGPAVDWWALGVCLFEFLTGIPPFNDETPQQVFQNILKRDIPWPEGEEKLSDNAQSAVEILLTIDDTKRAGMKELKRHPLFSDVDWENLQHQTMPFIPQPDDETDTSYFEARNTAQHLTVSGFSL
Experiment: MASTL Activity Assay
Protocol: Wild-type human active MASTL (154 pM) was incubated in assay buffer (50 mM HEPES, 100 mM NaCl, 0.1 mM EGTA, 10 mM MgCl2, 0.01% Tween-20, 0.5 mM TCEP, pH 7.5) with biotin tagged 40-mer ENSA peptide (10 nM), test compound and ATP (18 μM) for 60 minutes at room temperature. Test compounds were assayed using a 12-point dose range consisting of a 0, DMSO control and 10 sequential doses consisting from 0.0005, 0.002, 0.005, 0.014, 0.04, 0.12, 0.37, 1.11, 3.33 and 10 μM. The DMSO concentration was the same (1%) in all samples. An equal volume of detection buffer (assay buffer+267.5 pM Ab-K, 1.25 nM SA-D2, 20 mM EDTA and 400 mM KF) was added to stop the reaction to make a final volume of 20 μl, RT for 60 mins. Activity was measured using a plate reader (PerkinElmer EnSight) by the FRET signal generated between SA-D2 (streptavidin-D2) and Ab-K (anti-phospho-Serine 67 ENSA antibody (rabbit polyclonal, using standard techniques by a commercial supplier) conjugated to Cryptate). HTRF reagents (CisBio) were prepared as per the manufacturer recommendations. The 40-mer biotin-tagged ENSA peptide (synthesised by Bionics) used was based around Serine 67 on ENSA ([…]).

IC50	SMILES
< 500 nM	CC(C)C(Nc1nc(N)nc(-c2ccc3cn[nH]c3c2)n1)c1c[nH]c(C(F)(F)F)n1 (stereo unspecified) [US20250352549, Example 156]
< 500 nM	CCC(Nc1nc(N)nc(-c2ccc3cn[nH]c3c2)n1)c1c[nH]c(C(F)(F)F)n1 (stereo unspecified) [US20250352549, Example 157]
> 1000 nM	Cc1ncc2ccc(-c3nc(N)nc(NC(c4nc(C(F)(F)F)no4)C(C)C)n3)cn12 (stereo unspecified) [US20250352549, Example 158]
in the range around 750 nM	Cc1ncc2ccc(-c3nc(N)nc(NCc4nc(C(F)(F)F)no4)n3)cn12 [US20250352549, Example 159]
in the range around 750 nM	Cc1ncc2ccc(-c3nc(N)nc(NC(C)(C)c4nc(C(F)(F)F)no4)n3)cn12 [US20250352549, Example 160]
in the range around 750 nM	Cc1ncc2ccc(-c3nc(N)nc(N(C)C(c4c[nH]c(C(F)(F)F)n4)C(C)C)n3)cn12 (stereo unspecified) [US20250352549, Example 161]
in the range around 750 nM	Cc1ncc2ccc(-c3nc(N)nc(N(C)Cc4cccc(F)c4Cl)n3)cn12 [US20250352549, Example 162]
< 500 nM	Cc1ncc2ccc(-c3nc(N)nc(N(C)Cc4cccc(Cl)c4F)n3)cn12 [US20250352549, Example 163]
< 500 nM	Cc1ncc2ccc(-c3nc(N)nc(N(C)Cc4c[nH]c(C(F)(F)F)n4)n3)cn12 [US20250352549, Example 164]
< 500 nM	Cc1ncc2ccc(-c3nc(N)nc(NC(c4cn(C)c(C(F)(F)F)n4)C(C)C)n3)cn12 (stereo unspecified) [US20250352549, Example 165]
> 1000 nM	Cc1ncc2ccc(-c3nc(N)nc(NC(c4nnc(C(F)(F)F)o4)C(C)C)n3)cn12 (stereo unspecified) [US20250352549, Example 166]
< 500 nM	CC(C)C(Nc1nc(N)nc(-c2ccc3cn[nH]c3c2)n1)c1ccn(C(F)F)n1 (stereo unspecified) [US20250352549, Example 167]
> 1000 nM	Cc1ncc2ccc(-c3nc(N)nc(NC(c4ccc(C#N)cn4)C(C)C)n3)cn12 (stereo unspecified) [US20250352549, Example 168]
in the range around 750 nM	Cc1ncc2ccc(-c3nc(N)nc(N(C)C(c4cn(C)c(C(F)(F)F)n4)C(C)C)n3)cn12 (stereo unspecified) [US20250352549, Example 169]
< 500 nM	CNc1nc(NC(c2ccn(C(F)F)n2)C(C)C)nc(-c2ccc3cn[nH]c3c2)n1 (stereo unspecified) [US20250352549, Example 171]
< 500 nM	CNc1nc(NC(C)(C)c2ccn(C(F)F)n2)nc(-c2ccc3cnn(C)c3c2)n1 [US20250352549, Example 172]
< 500 nM	Cn1ncc2ccc(-c3nc(N)nc(NC(C)(C)c4c[nH]c(C(F)(F)F)n4)n3)cc21 [US20250352549, Example 174]
< 500 nM	Cc1ncc2ccc(-c3nc(N)nc(NC(C)(C)c4ccn(CCN)n4)n3)cn12 [US20250352549, Example 175]
< 500 nM	Cc1ncc2ccc(-c3nc(N)nc(NC(c4ccc(CN)cn4)C(C)C)n3)cn12 (stereo unspecified) [US20250352549, Example 178]
< 500 nM	CC(C)CC(Nc1nc(N)nc(-c2ccc3cn[nH]c3c2)n1)c1c[nH]c(C(F)(F)F)n1 (stereo unspecified) [US20250352549, Example 179]
< 500 nM	Cc1nc(C)n2cc(-c3nc(N)nc(NC(c4c[nH]c(C(F)(F)F)n4)C(C)C)n3)ccc12 (stereo unspecified) [US20250352549, Example 181]
